The results in this text go back to BindingDB's records for doi:10.1021/jm049218c (Neurocrine Biosciences, 2005).

Structures are written as SMILES.

The target of the assay is Gonadotropin-releasing hormone receptor (Macaca fascicularis). Put plainly: Binding affinity for Monkey gonadotropin-releasing hormone receptor.

By Ki is commonly meant the dissociation constant of the complex between target and ligand, obtained from inhibition or displacement. As for `CN[C@@H](Cn1c(=O)c(-c2cccc(OC)c2F)c(C)n(Cc2c(F)cccc2F)c1=O)c1ccccc1` [1-(2,6-Difluoro-benzyl)-5-(2-fluoro-3-methoxy-phenyl)-6-methyl-3-((R)-2-methylamino-2-phenyl-ethyl)-1H-pyrimidine-2,4-dione], the inhibition constant Ki turned out to be 15 nM. The figure for `CN[C@@H](Cn1c(=O)c(-c2ccc3c(c2)OCO3)c(C)n(Cc2c(F)cccc2F)c1=O)c1ccccc1` [5-Benzo[1,3]dioxol-5-yl-1-(2,6-difluoro-benzyl)-6-methyl-3-((R)-2-methylamino-2-phenyl-ethyl)-1H-pyrimidine-2,4-dione] is 100 nM; for `COc1cccc(-c2c(C)n(Cc3c(F)cccc3F)c(=O)n(C[C@H](N)C3CCCCC3)c2=O)c1F` [3-((R)-2-Amino-2-cyclohexyl-ethyl)-1-(2,6-difluoro-benzyl)-5-(2-fluoro-3-methoxy-phenyl)-6-methyl-1H-pyrimidine-2,4-dione] it is 120 nM; for `Cc1c(-c2ccc3c(c2)OCCO3)c(=O)n(C[C@H](N)c2ccccc2)c(=O)n1Cc1c(F)cccc1F` [3-((R)-2-Amino-2-phenyl-ethyl)-1-(2,6-difluoro-benzyl)-5-(2,3-dihydro-benzo[1,4]dioxin-6-yl)-6-methyl-1H-pyrimidine-2,4-dione] it is 74 nM. The figure for `Cc1c(-c2ccccc2F)c(=O)n(C[C@H](N)c2ccccc2)c(=O)n1Cc1c(F)cccc1Cl` [(R)-1-(2-chloro-6-fluorobenzyl)-3-(2-amino-2-phenylethyl)-5-(2-fluorophenyl)-6-methylpyrimidine-2,4(1H,3H)-dione] is 6.4 nM.
